Measurements taken from patent US20260193227A1, “THERAPEUTIC COMPOUNDS AND METHODS” (UNIVERSITY OF IOWA RESEARCH FOUNDATION, priority 2022, published 2026).
Where a chain is given by its changes, count along the chain named. “Also recorded” adds a separate entry of the source.

Key:
RAD52-ssDNA interaction = biological target: T1, RAD52-ssDNA interaction (Homo sapiens, UniProt P43351); test: FRET-based inhibition of the RAD52-ssDNA interaction; format: binding; settings: for effect on the RAD52-ssDNA complex / capacity to inhibit RAD52: FRET titration; for selectivity towards RAD52 over RPA: in vitro FRET-based assays
T1 construct: 6xHis; made in house
T1 sequence (P43351 1-418): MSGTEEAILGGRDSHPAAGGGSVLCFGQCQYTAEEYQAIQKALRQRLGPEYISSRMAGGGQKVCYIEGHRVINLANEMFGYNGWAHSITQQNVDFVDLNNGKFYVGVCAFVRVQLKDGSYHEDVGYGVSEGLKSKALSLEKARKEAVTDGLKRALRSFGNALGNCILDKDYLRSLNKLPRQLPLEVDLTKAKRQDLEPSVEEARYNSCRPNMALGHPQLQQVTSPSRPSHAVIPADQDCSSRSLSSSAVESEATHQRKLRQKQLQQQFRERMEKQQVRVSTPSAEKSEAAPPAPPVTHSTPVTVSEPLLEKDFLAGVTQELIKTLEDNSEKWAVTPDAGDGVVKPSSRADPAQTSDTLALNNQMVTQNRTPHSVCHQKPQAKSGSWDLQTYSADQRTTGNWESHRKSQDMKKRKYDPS
Method: (§1) Proteins: The 6×His-tagged human RAD52 proteins (wild type and mutants) and untagged human RPA were expressed and purified as previously described in (Hengel S R, eLife. 2016; 5; Grimme J M, et al., Nucleic Acids Res. 2010; 38(9):2917-30; and Henricksen L A, et al., The Journal of biological chemistry. 1994; 269(15):11121-32). RPA and RAD52 protein concentrations were determined by measuring absorbance at 280 nm using extinction coefficients of 88,830 M^−1 cm^−1 and 40,470 M^−1 cm^−1, respectively.
(§2) FRET-based DNA binding and inhibition assays: FRET-based that monitor the RAD52-ssDNA, RPA-ssDNA and RAD52-RPA-ssDNA binding were carried out as previously described (Hengel S R, eLife. 2016; 5; Grimme J M, et al., Nucleic Acids Res. 2010; 38(9):2917-30; and Grimme J M, Spies M. FRET-based assays to monitor DNA binding and annealing by Rad52 recombination mediator protein. Methods in molecular biology (Clifton, NJ). 2011; 745:463-83) using Cary Eclipse Spectrofluorimeter (Agilent) at 25° C., in 5 mm quartz cuvettes, and in buffer containing 30 mM Tris-Acetate (pH 7.5) and 1 mM DTT. Cy3 dye was excited at 530 nm and its emission was monitored at 565 nm. Emission of Cy5 acceptor fluorophore excited through the energy transfer from Cy3 donor is monitored at 660 nm simultaneously with emission of Cy3 dye. Both the excitation and the emission slits were set to 10 nm. All experiments were carried out using 1 nM (molecules) Cy3-dT30-Cy5 ssDNA. The optimal concentrations of the RAD52 (6 nM) and RPA (1 nM) proteins were selected by titrating the respective protein into 1 nM Cy3-dT30-Cy5 solution, and chosen based on the largest separation of the FRET values corresponding to the protein bound and free DNA.
The inhibition of the RAD52-ssDNA, RPA-ssDNA and RAD52-RPA-ssDNA complexes was evaluated by titrating each compound to the respective complex, measuring Cy3 and Cy5 fluorescence, and calculating FRET as previously described (Hengel, S. R., et al., eLife, 5).
Spectral properties of many compounds overlapped with the Cy3 and Cy5 fluorescence. To correct the calculated FRET values for the compound signal, the fluorogenic compounds were titrated into buffer and into solution of 1 nM Cy3-dT30-Cy5. For all tested compounds, the change in the signal in the Cy3 and Cy5 channels with and without Cy3/Cy5-labeled DNA present was the same. […] To account for the dye fluorescence, for each compound concentration, the apparent change in FRET of the ssDNA in the presence the compound was subtracted from the respective FRET signal of the RAD52-ssDNA, RPA-ssDNA or RAD52-ssDNA-RPA complex at the same inhibitor concentration. The IC50 values were calculated by fitting the corrected FRET data to the four-parameter dose response model using GraphPad Prism. All data are shown as average for at least three independent experiments ±standard deviation. The IC50 values are presented with their respective fitting error.

[1] = biological target: T2, RAD52 IB mutant (K152A/R153A) (Homo sapiens, UniProt P43351, K152A/R153A); test: FRET-based inhibition of ssDNA binding, inner binding defective RAD52 mutant
T2 construct: 6xHis; made in house
T2 sequence (P43351 1-418 K152A/R153A): T1 sequence (P43351 1-418) with K152A, R153A
Method: as §1
as §2, with “Both the excitation and the emission slits were set to 10 nm. All experiments were carried out using 1 nM (molecules) Cy3-dT30-Cy5 ssDNA. The optimal concentrations of the RAD52 (6 nM) and RPA (1 nM) proteins were selected by titrating the respective protein into 1 nM Cy3-dT30-Cy5 solution, and chosen based on the largest separation of the FRET values corresponding to the protein bound and free DNA.” left out
Spectral properties of many compounds overlapped with the Cy3 and Cy5 fluorescence. […]

SMILES: O=C(Cn1cccc([N+](=O)[O-])c1=O)c1c[nH]c2ccccc12 [Example 1]
- effect on the RAD52-ssDNA complex / capacity to inhibit RAD52 (RAD52-ssDNA interaction): FRET decrease
- selectivity towards RAD52 over RPA (RAD52-ssDNA interaction; listed as Z99): more promiscuous also inhibiting RPA; also recorded: more promiscuous, inhibited RPA in vitro
- inhibition of ssDNA binding to IB mutant RAD52 [1]: able to inhibit

SMILES: COc1ccccc1NS(=O)(=O)c1cc(C(=O)O)ccc1C [Example 8]
- effect on the RAD52-ssDNA complex / capacity to inhibit RAD52 (RAD52-ssDNA interaction): FRET decrease
- selectivity towards RAD52 over RPA (RAD52-ssDNA interaction; listed as Z56): specific to RAD52 over RPA in vitro; also recorded: shows selectivity towards RAD52 over RPA
- inhibition of ssDNA binding to IB mutant RAD52 [1]: able to inhibit
